Experimental data: the supplement of paper PMC10307832

How the values were obtained:
Test in all cases: relative viability (nuclei count vs DMSO), 5 days (fraction); higher = more cells survive
NCI-H1650 = test system: NCI-H1650
Summary of the method: (§1)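 One day after seeding in 1536-well plates, lung cancer cell lines were dosed by pin tool. Dosing was either single-drug or a fixed anchor-drug dose plus five library-drug doses (not always all listed) in √10 steps. After 5 days, nuclei were stained in one fix-and-stain step and counted on 4× images, and relative viability is the nuclei count of treated wells over that of vehicle wells, given as the median of duplicate plates.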

NCI-H441 = test system: NCI-H441
Summary of the method: as §1

NCI-H1355 = test system: NCI-H1355
Summary of the method: as §1

NCI-H460 = test system: NCI-H460
Summary of the method: as §1

EKVX = test system: EKVX
Summary of the method: as §1

NCI-H1395 = test system: NCI-H1395
Summary of the method: as §1

NCI-H1437 = test system: NCI-H1437
Summary of the method: as §1

NCI-H1563 = test system: NCI-H1563
Summary of the method: as §1

NCI-H838 = test system: NCI-H838
Summary of the method: as §1

NCI-H1755 = test system: NCI-H1755
Summary of the method: as §1

NCI-H2085 = test system: NCI-H2085
Summary of the method: as §1

NCI-H1975 = test system: NCI-H1975
Summary of the method: as §1

LOU-NH91 = test system: LOU-NH91
Summary of the method: as §1

CAL-12T = test system: CAL-12T
Summary of the method: as §1

NCI-H2342 = test system: NCI-H2342
Summary of the method: as §1

NCI-H2023 = test system: NCI-H2023
Summary of the method: as §1

BEN = test system: BEN
Summary of the method: as §1

NCI-H358 = test system: NCI-H358
Summary of the method: as §1

NCI-H1734 = test system: NCI-H1734
Summary of the method: as §1

LU99A = test system: LU99A
Summary of the method: as §1

NCI-H1651 = test system: NCI-H1651
Summary of the method: as §1

HCC-366 = test system: HCC-366
Summary of the method: as §1

O=C(O)c1ccc(-c2c[nH]c3ncc(-c4ccccc4)cc23)cc1C1CCCC1 + COc1cc2c(Oc3ccc(NC(=O)C4(C(=O)Nc5ccc(F)cc5)CC4)cc3F)ccnc2cc1OCCCN1CCOCC1 [Foretinib] (partner 0.25 µM)
relative viability (NCI-H1650; first compound 0.04 µM): 1.22 | relative viability (NCI-H1650; first compound 0.1265 µM): 1.57 | relative viability (NCI-H1650; first compound 0.4 µM): 1.6 | relative viability (NCI-H1650; first compound 1.265 µM): 1.14 | relative viability (NCI-H441; first compound 0.04 µM): 1.14 | relative viability (NCI-H441; first compound 0.1265 µM): 0.881 | relative viability (NCI-H441; first compound 0.4 µM): 0.897 | relative viability (NCI-H441; first compound 1.265 µM): 0.563 | relative viability (NCI-H1355; first compound 0.04 µM): 1.08 | relative viability (NCI-H1355; first compound 0.1265 µM): 0.992 | relative viability (NCI-H1355; first compound 0.4 µM): 0.957 | relative viability (NCI-H1355; first compound 1.265 µM): 0.622 | relative viability (NCI-H460; first compound 0.04 µM): 0.993 | relative viability (NCI-H460; first compound 0.1265 µM): 1.14 | relative viability (NCI-H460; first compound 0.4 µM): 0.962 | relative viability (NCI-H460; first compound 1.265 µM): 0.917 | relative viability (EKVX; first compound 0.04 µM): 0.826 | relative viability (EKVX; first compound 0.1265 µM): 0.79 | relative viability (EKVX; first compound 0.4 µM): 0.868 | relative viability (EKVX; first compound 1.265 µM): 0.712 | relative viability (NCI-H1395; first compound 0.04 µM): 0.983 | relative viability (NCI-H1395; first compound 0.1265 µM): 1.05 | relative viability (NCI-H1395; first compound 0.4 µM): 1.01 | relative viability (NCI-H1395; first compound 1.265 µM): 0.944 | relative viability (NCI-H1437; first compound 0.04 µM): 1.25 | relative viability (NCI-H1437; first compound 0.1265 µM): 1.19 | relative viability (NCI-H1437; first compound 0.4 µM): 1.11 | relative viability (NCI-H1437; first compound 1.265 µM): 0.923 | relative viability (NCI-H1563; first compound 0.04 µM): 0.924 | relative viability (NCI-H1563; first compound 0.1265 µM): 1.03 | relative viability (NCI-H1563; first compound 0.4 µM): 0.853 | relative viability (NCI-H1563; first compound 1.265 µM): 0.97 | relative viability (NCI-H838; first compound 0.04 µM): 1.02 | relative viability (NCI-H838; first compound 0.1265 µM): 1.17 | relative viability (NCI-H838; first compound 0.4 µM): 1.05 | relative viability (NCI-H838; first compound 1.265 µM): 0.923 | relative viability (NCI-H1755; first compound 0.04 µM): 0.913 | relative viability (NCI-H1755; first compound 0.1265 µM): 1.02 | relative viability (NCI-H1755; first compound 0.4 µM): 0.939 | relative viability (NCI-H1755; first compound 1.265 µM): 0.861 | relative viability (NCI-H2085; first compound 0.04 µM): 1.14 | relative viability (NCI-H2085; first compound 0.1265 µM): 0.988 | relative viability (NCI-H2085; first compound 0.4 µM): 0.845 | relative viability (NCI-H2085; first compound 1.265 µM): 0.56 | relative viability (NCI-H1975; first compound 0.04 µM): 0.964 | relative viability (NCI-H1975; first compound 0.1265 µM): 0.941 | relative viability (NCI-H1975; first compound 0.4 µM): 0.985 | relative viability (NCI-H1975; first compound 1.265 µM): 0.883 | relative viability (LOU-NH91; first compound 0.04 µM): 0.892 | relative viability (LOU-NH91; first compound 0.1265 µM): 1.03 | relative viability (LOU-NH91; first compound 0.4 µM): 0.927 | relative viability (LOU-NH91; first compound 1.265 µM): 0.781 | relative viability (CAL-12T; first compound 0.04 µM): 1.22 | relative viability (CAL-12T; first compound 0.1265 µM): 1.07 | relative viability (CAL-12T; first compound 0.4 µM): 1.13 | relative viability (CAL-12T; first compound 1.265 µM): 0.997 | relative viability (NCI-H2342; first compound 0.04 µM): 1.03 | relative viability (NCI-H2342; first compound 0.1265 µM): 1.11 | relative viability (NCI-H2342; first compound 0.4 µM): 1.18 | relative viability (NCI-H2342; first compound 1.265 µM): 0.991 | relative viability (NCI-H2023; first compound 0.04 µM): 0.988 | relative viability (NCI-H2023; first compound 0.1265 µM): 1 | relative viability (NCI-H2023; first compound 0.4 µM): 0.895 | relative viability (NCI-H2023; first compound 1.265 µM): 0.749 | relative viability (BEN; first compound 0.04 µM): 0.586 | relative viability (BEN; first compound 0.1265 µM): 0.854 | relative viability (BEN; first compound 0.4 µM): 0.937 | relative viability (BEN; first compound 1.265 µM): 0.765 | relative viability (NCI-H358; first compound 0.04 µM): 0.768 | relative viability (NCI-H358; first compound 0.1265 µM): 0.949 | relative viability (NCI-H358; first compound 0.4 µM): 0.619 | relative viability (NCI-H358; first compound 1.265 µM): 0.397 | relative viability (NCI-H1734; first compound 0.04 µM): 0.859 | relative viability (NCI-H1734; first compound 0.1265 µM): 1.04 | relative viability (NCI-H1734; first compound 0.4 µM): 0.731 | relative viability (NCI-H1734; first compound 1.265 µM): 0.766 | relative viability (LU99A; first compound 0.04 µM): 0.803 | relative viability (LU99A; first compound 0.1265 µM): 0.783 | relative viability (LU99A; first compound 0.4 µM): 0.729 | relative viability (LU99A; first compound 1.265 µM): 0.677 | relative viability (NCI-H1651; first compound 0.04 µM): 0.786 | relative viability (NCI-H1651; first compound 0.1265 µM): 0.806 | relative viability (NCI-H1651; first compound 0.4 µM): 0.792 | relative viability (NCI-H1651; first compound 1.265 µM): 0.607 | relative viability (HCC-366; first compound 0.04 µM): 0.948 | relative viability (HCC-366; first compound 0.1265 µM): 0.951 | relative viability (HCC-366; first compound 0.4 µM): 0.894 | relative viability (HCC-366; first compound 1.265 µM): 0.881
